Results published in patent US10548828B2, “Use of 3,6-anhydro-L-galactose for preventing dental caries” (Korea University Research and Business Foundation, priority 2015, dated 2020).

Tests used:
S. mutans [1] = experiment: Inhibitory effects under sucrose, fructose or maltose conditions, 96-well plate; type: cell-based, Streptococcus mutans; conditions: for non-growth rate: 40 g/L added
Protocol: Strains used in the present experiment are Streptococcus mutans ATCC 25175, S. oralis, and S. sanguinis. Representatively, Streptococcus mutans ATCC 25175 was pre-cultured in a brain-heart infusion (BHI) medium for 12 hours, and was washed twice with a 2 mM potassium phosphate buffer, and then was subjected to main culture in a minimal medium prepared with reference to the previously reported document (Fujiwara et al (1978) Arch Oral Biol. 23, 601-602) at 37° C. and 180 rpm. The composition of the minimal medium includes, in 5 mL of a 50 mM Tris-HCl buffer (pH 7.4), 10 mg of L-glutamic acid, 1 mg of cysteine hydrochloride, 4.5 mg of L-leucine, 5 mg of ammonium chloride, 17.5 mg of potassium hydrogen phosphate, 7.5 mg of potassium dihydrogen phosphate, 21 mg of a carbonate, 6 mg of magnesium sulfate heptahydrate, 0.1 mg of manganese chloride tetrahydrate, 3 mg of sodium pyruvate, 5 μg of riboflavin, 2.5 μg of thiamine hydrochloride, 0.5 μg of biotin, 5 μg of nicotinic acid, 0.5 μg of p-aminobenzoic acid, 2.5 μg of calcium pantothenate, and 5 μg of pyridoxine hydrochloride. Under conditions of fermentable sugars other than glucose, for example, sucrose, fructose, and maltose, inhibitory effects of AHG and xylitol on S. mutans were investigated. An experiment was carried out in a 96-well plate containing 0 g/L to 10 g/L of AHG or 0 g/L to 40 g/L of xylitol in a specified minimal medium containing 10 g/L of each of sucrose, fructose, and maltose.

Streptococcus mutans [2] = experiment: Growth inhibition under mixed carbon source condition (10 g/L glucose), 96-well plate; type: cell-based, Streptococcus mutans ATCC 25175
Protocol: (§1) Strains used in the present experiment are Streptococcus mutans ATCC 25175, S. oralis, and S. sanguinis. Representatively, Streptococcus mutans ATCC 25175 was pre-cultured in a brain-heart infusion (BHI) medium for 12 hours, and was washed twice with a 2 mM potassium phosphate buffer, and then was subjected to main culture in a minimal medium prepared with reference to the previously reported document (Fujiwara et al (1978) Arch Oral Biol. 23, 601-602) at 37° C. and 180 rpm. […] Small amounts of Streptococcus mutans, S. oralis, and S. sanguinis were cultured, using the method of Example 5, in 200 μl of a liquid minimal medium containing 10 g/L of glucose and 3,6-anhydro-L-galactose or xylitol according to concentration in a 96-well plate, and growth inhibitory effects thereof were observed by measuring absorbance at a wavelength of 600 nm according to time. […]

Streptococcus mutans [3] = experiment: Colony formation of Streptococcus mutans on solid minimal medium, single carbon source; type: cell-based, Streptococcus mutans ATCC 25175; conditions: 10 g/L as single carbon source, 30 h
Protocol: Strains used in the present experiment are Streptococcus mutans ATCC 25175, S. oralis, and S. sanguinis. Representatively, Streptococcus mutans ATCC 25175 was pre-cultured in a brain-heart infusion (BHI) medium for 12 hours, and was washed twice with a 2 mM potassium phosphate buffer, and then was subjected to main culture in a minimal medium prepared with reference to the previously reported document (Fujiwara et al (1978) Arch Oral Biol. 23, 601-602) at 37° C. and 180 rpm. The composition of the minimal medium includes, in 5 mL of a 50 mM Tris-HCl buffer (pH 7.4), 10 mg of L-glutamic acid, 1 mg of cysteine hydrochloride, 4.5 mg of L-leucine, 5 mg of ammonium chloride, 17.5 mg of potassium hydrogen phosphate, 7.5 mg of potassium dihydrogen phosphate, 21 mg of a carbonate, 6 mg of magnesium sulfate heptahydrate, 0.1 mg of manganese chloride tetrahydrate, 3 mg of sodium pyruvate, 5 μg of riboflavin, 2.5 μg of thiamine hydrochloride, 0.5 μg of biotin, 5 μg of nicotinic acid, 0.5 μg of p-aminobenzoic acid, 2.5 μg of calcium pantothenate, and 5 μg of pyridoxine hydrochloride. To verify an effect of inhibiting the growth of Streptococcus mutans under a single carbon source condition, Streptococcus mutans was cultured in a solid minimal medium and a liquid minimal medium that contained 10 g/L of each of 3,6-anhydro-L-galactose, glucose, and xylitol. […]

S. sanguinis = experiment: Growth inhibition under mixed carbon source condition (10 g/L glucose), 96-well plate; type: cell-based; conditions: 60 g/L added to 10 g/L glucose
Protocol: as §1

S. mutans [4] = conditions: background statement; cited from earlier work
Streptococcus mutans [5] = experiment: Growth of Streptococcus mutans in liquid minimal medium, single carbon source (absorbance 600 nm); type: cell-based, Streptococcus mutans ATCC 25175; conditions: 10 g/L single carbon source, 20 h after entering a stationary phase
Protocol: Strains used in the present experiment are Streptococcus mutans ATCC 25175, S. oralis, and S. sanguinis. Representatively, Streptococcus mutans ATCC 25175 was pre-cultured in a brain-heart infusion (BHI) medium for 12 hours, and was washed twice with a 2 mM potassium phosphate buffer, and then was subjected to main culture in a minimal medium prepared with reference to the previously reported document (Fujiwara et al (1978) Arch Oral Biol. 23, 601-602) at 37° C. and 180 rpm. The composition of the minimal medium includes, in 5 mL of a 50 mM Tris-HCl buffer (pH 7.4), 10 mg of L-glutamic acid, 1 mg of cysteine hydrochloride, 4.5 mg of L-leucine, 5 mg of ammonium chloride, 17.5 mg of potassium hydrogen phosphate, 7.5 mg of potassium dihydrogen phosphate, 21 mg of a carbonate, 6 mg of magnesium sulfate heptahydrate, 0.1 mg of manganese chloride tetrahydrate, 3 mg of sodium pyruvate, 5 μg of riboflavin, 2.5 μg of thiamine hydrochloride, 0.5 μg of biotin, 5 μg of nicotinic acid, 0.5 μg of p-aminobenzoic acid, 2.5 μg of calcium pantothenate, and 5 μg of pyridoxine hydrochloride. […] The bacteria were main-cultured using the method of Example 5 for 35 h, and a degree of the cell growth was measured by measuring the absorbance of a culture at a wavelength of 600 nm every 5 h.

Streptococcus mutans [6] = experiment: Growth and acid production under mixed carbon source condition, 5 mL culture, absorbance and HPLC; type: cell-based, Streptococcus mutans ATCC 25175
Protocol: Strains used in the present experiment are Streptococcus mutans ATCC 25175, S. oralis, and S. sanguinis. Representatively, Streptococcus mutans ATCC 25175 was pre-cultured in a brain-heart infusion (BHI) medium for 12 hours, and was washed twice with a 2 mM potassium phosphate buffer, and then was subjected to main culture in a minimal medium prepared with reference to the previously reported document (Fujiwara et al (1978) Arch Oral Biol. 23, 601-602) at 37° C. and 180 rpm. The composition of the minimal medium includes, in 5 mL of a 50 mM Tris-HCl buffer (pH 7.4), 10 mg of L-glutamic acid, 1 mg of cysteine hydrochloride, 4.5 mg of L-leucine, 5 mg of ammonium chloride, 17.5 mg of potassium hydrogen phosphate, 7.5 mg of potassium dihydrogen phosphate, 21 mg of a carbonate, 6 mg of magnesium sulfate heptahydrate, 0.1 mg of manganese chloride tetrahydrate, 3 mg of sodium pyruvate, 5 μg of riboflavin, 2.5 μg of thiamine hydrochloride, 0.5 μg of biotin, 5 μg of nicotinic acid, 0.5 μg of p-aminobenzoic acid, 2.5 μg of calcium pantothenate, and 5 μg of pyridoxine hydrochloride. To verify an effect of 3,6-anhydro-L-galactose or xylitol on the growth of Streptococcus mutans and acid production, Streptococcus mutans bacteria were cultured, using the method of Example 5, in 5 mL of a liquid minimal medium containing 10 g/L of glucose and 0 g/L, 5 g/L or 10 g/L of 3,6-anhydro-L-galactose or 20 g/L or 40 g/L of xylitol for 35 h, and cell growth was measured using absorbance every 5 hours and concentrations of an extracellular substrate and acid production were measured by HPLC. A glucose only-added condition was set as a negative control, and a glucose- and xylitol-added condition was set as a positive control. A column used for analysis was Aminex HPX-87H, and 0.01 N of sulfuric acid as a mobile phase was flowed at a rate of 0.5 mL/min and 65° C.

In the case of `OC[C@@H](O)[C@H](O)[C@@H](O)CO` [xylitol], the non-growth rate (S. mutans [1]; 10 g/L fructose) is reported as 0.085 h⁻¹, the non-growth rate (S. mutans [1]; 10 g/L maltose) is reported as 0.045 h⁻¹ and the “cell growth of S. mutans, concentration dependence” value (S. mutans [1]; 10 g/L sucrose, 0-40 g/L added) is reported as “decreased as the concentration of xylitol was increased”. The non-growth rate (S. mutans [1]; 10 g/L sucrose) was 0.061 h⁻¹, the “cell growth of S. mutans” value (S. mutans [1]; 10 g/L sucrose, 40 g/L added (maximum concentration)) was “did not completely inhibit” and the “growth of Streptococcus mutans, concentration dependence” value (Streptococcus mutans [2]; 0-60 g/L added to 10 g/L glucose) was “inhibited as the treated concentration of xylitol was increased”. The “growth of Streptococcus mutans” value (Streptococcus mutans [2]; 40 g/L added to 10 g/L glucose) was “considerable cell growth was observed”, the “formation of colonies compared to the glucose condition” value (Streptococcus mutans [3]) was “inhibited” and the “inhibitory effect on S. sanguinis” value (S. sanguinis) was “strong inhibitory effect”. For the same molecule, the “concentration at which the growth of S. mutans can be inhibited” value (S. mutans [4]) was at least 25 g/L, the “dry cell weight (DCW) of Streptococcus mutans” value (Streptococcus mutans [5]) was 1.46 g/L and the “concentration of produced acetic acid” value (Streptococcus mutans [6]; 20 g/L in 10 g/L glucose) was 0.55 g/L. For the same molecule, the “concentration of produced lactic acid” value (Streptococcus mutans [6]; 20 g/L in 10 g/L glucose) was 3.67 g/L, the “final dry cell weight” value (Streptococcus mutans [6]; 20 g/L in 10 g/L glucose) was 1.42 g/L and the glucose consumed (Streptococcus mutans [6]; 20 g/L in 10 g/L glucose) was 5.28 g/L. For the same molecule, the non-growth rate (Streptococcus mutans [6]; 20 g/L in 10 g/L glucose) was 0.087 h⁻¹, the “concentration of consumed glucose” value (Streptococcus mutans [6]; 40 g/L in 10 g/L glucose) was 5.42 g/L and the “concentration of produced acetic acid” value (Streptococcus mutans [6]; 40 g/L in 10 g/L glucose) was 0.55 g/L. The “concentration of produced lactic acid” value (Streptococcus mutans [6]; 40 g/L in 10 g/L glucose) was 3.67 g/L, the “inhibition of growth of Streptococcus mutans and acid production” value (Streptococcus mutans [6]; 40 g/L in 10 g/L glucose) was “did not completely inhibit” and the lag phase (Streptococcus mutans [6]; 40 g/L in 10 g/L glucose, compared with 20 g/L) was “longer”. For the same molecule, the “use as a carbon source / fermentation by Streptococcus mutans” value (Streptococcus mutans [6]; in 10 g/L glucose) was “non-fermentation properties” and the “concentration of the added sugar during culture” value (Streptococcus mutans [6]; in 10 g/L glucose, 35 h culture) was “constantly maintained”.
